The source of these data is patent US9446081B2, “Pharmaceutical composition for preventing and treating complications of diabetes containing a traditional oriental medicine extract or a fraction thereof as an active ingredient” (KOREA INSTITUTE OF ORIENTAL MEDICINE, priority 2011, dated 2016).

Structures are written as SMILES.

For experiment [1], the system named is spontaneous diabetic Torii (SDT) rats. Kind of experiment: Diabetic nephropathy in type II diabetic animal model. The class given is in vivo, rat. As to conditions: oral once a day 16 weeks. On the procedure:
(§1) To investigate the effect of the extract of Homonoia riparia Lour. on the prevention and treatment of diabetic complications in spontaneous diabetic Torii (SDT) rats, the type II diabetic animal model, the extract of Homonoia riparia Lour. was orally administered to the animal for 16 weeks. 10-week old male SDT rats (CLEA Japan Inc., Tokyo, Japan) were adapted for 1 week, and then continued to raise for 15 weeks until the blood sugar level reached 300 mg/dl. Feed and water were provided freely. 15 weeks later, the rats were grouped into 5 group (8 rats per group), to which the extract of Homonoia riparia Lour. (HR) and the control drug MET were administered orally once a day. The experimental groups included the normal group (NOR), the diabetic group (DM), the metformin (350 mg/kg) treated diabetic group (MET), the Homonoia riparia Lour. extract (100 mg/kg) treated diabetic group (HR-100), and the Homonoia riparia Lour. extract (250 mg/kg) treated diabetic group (HR-250). Each group was administered with the test samples orally once a day for 16 weeks. Urine was picked up 24 hours before autopsy. The organs extracted by autopsy were stored at −80° C.
To investigate the effect of the extract of Homonoia riparia Lour. on the functions of the kidney suffering from chronic diabetes, urine was taken from the animal model 24 hours before the autopsy, with which renal indices {proteinuria, albuminuria, and glomerular filtration rate (Ccr)}, and glycation products (AGES and CML) were quantified. ELISA was performed to measure proteinuria, albuminuria, glomerular filtration rate, AGEs, CML, and podocyte (synaptopodin and WT-1). Particularly, the urine sample was mixed with coating buffer (50 mM carbonate buffer, pH 9.6) to make the final volume to be 100 μl (1:2), which was distributed in a 96-well plate. The plate stood at 37° C. for 3 hours and then washed with 0.05% PBST three times, followed by blocking with 3% skim milk. The plate stood as it was for 1 more hour and then washed. AGEs (Transgenic, JAPAN), CML (Transgenic, JAPAN), albumin, synaptopodin, and WT-1 (Santa Cruz, USA) antibodies were diluted respectively at the ratio of 1:1000, which were loaded in each well of the plate by 100 μl. The plate stood at 37° C. for 2 hours, and washed with 0.05% PBST. HRP-conjugated secondary antibody was loaded in each well of the plate by 100 μl, followed by reacting at 37° C. for 1 hour. 100 μl of the substrate, 3,3′,5,5′-tetramethylbenzidine (TMB) in 0.05% PBST was added to each well of the plate. 5 minutes later, the reaction was terminated by adding 1M H2SO4 solution (100 μl/well). Then OD was measured with an ELISA reader.
Immunological staining was performed as follows. After deparaffinization and hydration, the slide was reacted in 3% H2O2 solution for 10 minutes to deactivate endogenous peroxidase activity therein. Then, the slide was washed with PBS containing 0.05% tween 20 three times. To eliminate non-specific reaction, the slide was blocked with 5% AFB (animal free bock). The primary antibodies AGEs (Transgenic, Japan) and CML (Transgenic, Japan) were diluted (1:1000) and treated to the slide for 1 hour or overnight. After washing with PBS for 1 hour, the slide was treated with labeled streptavidin biotin (LSAB) kit (Dako, USA), followed by color development by using DAB (Dako, USA). Observation was performed under optical microscope.
The kidney was extracted from the animal model during the autopsy, which was fixed in 10% neutralized formalin for overnight. […]

For experiment [2] the test system is unchanged. Kind of experiment: Inhibition of diabetic retinopathy in type II diabetic animal model. The class given is in vivo, rat. As to conditions: oral once a day 16 weeks, metformin 350 mg/kg. As for the experimental part:
as §1
When hyperglycemic state continues, retinal vessels in eyeball become mal-functioning to cause blood-retinal barrier breakage. […]

[3] abbreviates: extract 100 or 250 mg/kg, metformin 350 mg/kg, vs diabetic group (DM), FIG. 6.

Consider `CN(C)C(=N)N=C(N)N` [metformin], for which, in experiment [1] (extract 100 or 250 mg/kg dose-dependently, metformin 350 mg/kg (not so significant), FIG. 9), the “glomerular hypertrophy and mesangial matrix expansion / morphological changes (PAS staining)” value is “decreased”. In addition, the “AGEs and CML in urine” value in experiment [1] (extract 100 or 250 mg/kg, metformin 350 mg/kg, FIG. 7) is recorded as “not much reduced”. In experiment [1] (setting [3]), the albuminuria entry is reported as “significantly reduced” and the proteinuria result was “higher”. In addition, the “collagen deposition in glomerulus (Masson's trichrome staining)” value in experiment [1] (extract 100 or 250 mg/kg, metformin 350 mg/kg, vs diabetic group (DM), FIG. 10) is “not much different”. Also, the “blood-retinal barrier breakage (fluorescein-dextran flown out of retinal vessels, non-perfusion area)” value in experiment [2] (extract 100 or 250 mg/kg (HR-100, HR-250), FIG. 2) is given as “fluorescent material was merely observed”. In experiment [2] (extract 100 or 250 mg/kg, vs diabetic group, FIG. 3), the “pericyte loss, acellular capillary formation and closed vessels in retina” value is recorded as “significantly decreased”.
